Source: the supplement of paper PMC10307832

Assays:
Experiment in all cases: relative viability (nuclei count vs DMSO), 5 days (fraction); higher = more cells survive
Vismodegib + Pictilisib = compound: CS(=O)(=O)c1ccc(C(=O)Nc2ccc(Cl)c(-c3ccccn3)c2)c(Cl)c1 [Vismodegib] + CS(=O)(=O)N1CCN(Cc2cc3nc(-c4cccc5[nH]ncc45)nc(N4CCOCC4)c3s2)CC1 [Pictilisib] (partner 1 µM)
In short: (§1)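 Relative viability equals treated-well nuclei counts divided by vehicle-well nuclei counts. Counts came from 4× images of lung cancer cell lines grown in 1536-well plates for 5 days after pin-tool dosing on the day after seeding. Dosing used one drug alone or a fixed anchor-drug dose plus five library-drug doses (not always all listed) in √10 steps, and values are medians of duplicate plates.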

Vismodegib + Linsitinib = compound: CS(=O)(=O)c1ccc(C(=O)Nc2ccc(Cl)c(-c3ccccn3)c2)c(Cl)c1 [Vismodegib] + C[C@]1(O)C[C@@H](c2nc(-c3ccc4ccc(-c5ccccc5)nc4c3)c3c(N)nccn32)C1 [Linsitinib] (partner 1 µM)
In short: as §1

[1] = compound: N#CC[C@H](C1CCCC1)n1cc(-c2ncnc3[nH]ccc23)cn1 [Ruxolitinib] + CC(=O)c1c(C)c2cnc(Nc3ccc(N4CCNCC4)cn3)nc2n(C2CCCC2)c1=O [Palbociclib] (partner 0.5 µM)
In short: as §1

Ruxolitinib + Pemetrexed = compound: N#CC[C@H](C1CCCC1)n1cc(-c2ncnc3[nH]ccc23)cn1 [Ruxolitinib] + Nc1nc2[nH]cc(CCc3ccc(C(=O)N[C@@H](CCC(=O)O)C(=O)O)cc3)c2c(=O)[nH]1 [Pemetrexed] (partner 0.2 µM)
In short: as §1

Cell Line: NCI-H650
- relative viability (Vismodegib + Pictilisib; first compound 0.08 µM): 0.799
- relative viability (Vismodegib + Pictilisib; first compound 0.253 µM): 0.733
- relative viability (Vismodegib + Pictilisib; first compound 0.8 µM): 0.643
- relative viability (Vismodegib + Pictilisib; first compound 2.53 µM): 0.945
- relative viability (Vismodegib + Pictilisib; first compound 8 µM): 0.947
- relative viability (Vismodegib + Linsitinib; first compound 0.08 µM): 0.868
- relative viability (Vismodegib + Linsitinib; first compound 0.253 µM): 0.799
- relative viability (Vismodegib + Linsitinib; first compound 0.8 µM): 0.679
- relative viability (Vismodegib + Linsitinib; first compound 2.53 µM): 0.994
- relative viability (Vismodegib + Linsitinib; first compound 8 µM): 0.949
- relative viability ([1]; first compound 0.08 µM): 0.325
- relative viability ([1]; first compound 0.253 µM): 0.339
- relative viability ([1]; first compound 0.8 µM): 0.347
- relative viability ([1]; first compound 2.53 µM): 0.317
- relative viability ([1]; first compound 8 µM): 0.321
- relative viability (Ruxolitinib + Pemetrexed; first compound 0.08 µM): 0.898
- relative viability (Ruxolitinib + Pemetrexed; first compound 0.253 µM): 0.98
- relative viability (Ruxolitinib + Pemetrexed; first compound 0.8 µM): 0.958
- relative viability (Ruxolitinib + Pemetrexed; first compound 2.53 µM): 0.966
- relative viability (Ruxolitinib + Pemetrexed; first compound 8 µM): 0.683

Cell Line: NCI-H647
- relative viability (Vismodegib + Pictilisib; first compound 0.253 µM): 0.407
- relative viability (Vismodegib + Pictilisib; first compound 0.8 µM): 0.389
- relative viability (Vismodegib + Pictilisib; first compound 2.53 µM): 0.401
- relative viability (Vismodegib + Pictilisib; first compound 8 µM): 0.586
- relative viability (Vismodegib + Linsitinib; first compound 0.08 µM): 1.16
- relative viability (Vismodegib + Linsitinib; first compound 0.253 µM): 1.21
- relative viability (Vismodegib + Linsitinib; first compound 0.8 µM): 1.19
- relative viability (Vismodegib + Linsitinib; first compound 2.53 µM): 0.911
- relative viability (Vismodegib + Linsitinib; first compound 8 µM): 1.34
- relative viability ([1]; first compound 0.08 µM): 0.523
- relative viability ([1]; first compound 0.253 µM): 0.443
- relative viability ([1]; first compound 0.8 µM): 0.44
- relative viability ([1]; first compound 2.53 µM): 0.344
- relative viability ([1]; first compound 8 µM): 0.346
- relative viability (Ruxolitinib + Pemetrexed; first compound 0.08 µM): 0.177
- relative viability (Ruxolitinib + Pemetrexed; first compound 0.253 µM): 0.189
- relative viability (Ruxolitinib + Pemetrexed; first compound 0.8 µM): 0.199
- relative viability (Ruxolitinib + Pemetrexed; first compound 2.53 µM): 0.162
- relative viability (Ruxolitinib + Pemetrexed; first compound 8 µM): 0.117

Cell Line: NCI-H3122
- relative viability (Vismodegib + Pictilisib; first compound 0.08 µM): 0.548
- relative viability (Vismodegib + Pictilisib; first compound 0.253 µM): 0.599
- relative viability (Vismodegib + Pictilisib; first compound 0.8 µM): 0.553
- relative viability (Vismodegib + Pictilisib; first compound 2.53 µM): 0.696
- relative viability (Vismodegib + Pictilisib; first compound 8 µM): 0.565
- relative viability (Vismodegib + Linsitinib; first compound 0.08 µM): 1.03
- relative viability (Vismodegib + Linsitinib; first compound 0.253 µM): 1.01
- relative viability (Vismodegib + Linsitinib; first compound 0.8 µM): 1.01
- relative viability (Vismodegib + Linsitinib; first compound 2.53 µM): 0.924
- relative viability (Vismodegib + Linsitinib; first compound 8 µM): 0.965
- relative viability ([1]; first compound 0.08 µM): 0.182
- relative viability ([1]; first compound 0.253 µM): 0.228
- relative viability ([1]; first compound 0.8 µM): 0.208
- relative viability ([1]; first compound 2.53 µM): 0.166
- relative viability ([1]; first compound 8 µM): 0.191
- relative viability (Ruxolitinib + Pemetrexed; first compound 0.08 µM): 0.212
- relative viability (Ruxolitinib + Pemetrexed; first compound 0.253 µM): 0.198
- relative viability (Ruxolitinib + Pemetrexed; first compound 0.8 µM): 0.192
- relative viability (Ruxolitinib + Pemetrexed; first compound 2.53 µM): 0.19
- relative viability (Ruxolitinib + Pemetrexed; first compound 8 µM): 0.188

Cell Line: PC-3 [JPC-3]
- relative viability (Vismodegib + Pictilisib; first compound 0.08 µM): 0.756
- relative viability (Vismodegib + Pictilisib; first compound 0.253 µM): 0.736
- relative viability (Vismodegib + Pictilisib; first compound 0.8 µM): 0.694
- relative viability (Vismodegib + Pictilisib; first compound 2.53 µM): 0.716
- relative viability (Vismodegib + Pictilisib; first compound 8 µM): 0.726
- relative viability (Vismodegib + Linsitinib; first compound 0.08 µM): 0.934
- relative viability (Vismodegib + Linsitinib; first compound 0.253 µM): 0.941
- relative viability (Vismodegib + Linsitinib; first compound 0.8 µM): 1.04
- relative viability (Vismodegib + Linsitinib; first compound 2.53 µM): 0.988
- relative viability (Vismodegib + Linsitinib; first compound 8 µM): 0.933
- relative viability ([1]; first compound 0.253 µM): 0.596
- relative viability ([1]; first compound 0.8 µM): 0.579
- relative viability ([1]; first compound 2.53 µM): 0.566
- relative viability ([1]; first compound 8 µM): 0.553
- relative viability (Ruxolitinib + Pemetrexed; first compound 0.253 µM): 1.13
- relative viability (Ruxolitinib + Pemetrexed; first compound 0.8 µM): 1.18
- relative viability (Ruxolitinib + Pemetrexed; first compound 2.53 µM): 1.11
- relative viability (Ruxolitinib + Pemetrexed; first compound 8 µM): 0.907

Cell Line: NCI-H1355
- relative viability (Vismodegib + Pictilisib; first compound 0.08 µM): 0.391
- relative viability (Vismodegib + Pictilisib; first compound 0.253 µM): 0.508
- relative viability (Vismodegib + Pictilisib; first compound 0.8 µM): 0.31
- relative viability (Vismodegib + Pictilisib; first compound 2.53 µM): 0.432
- relative viability (Vismodegib + Pictilisib; first compound 8 µM): 0.448
- relative viability (Vismodegib + Linsitinib; first compound 0.08 µM): 0.844
- relative viability (Vismodegib + Linsitinib; first compound 0.253 µM): 0.724
- relative viability (Vismodegib + Linsitinib; first compound 0.8 µM): 0.798
- relative viability (Vismodegib + Linsitinib; first compound 2.53 µM): 0.808
- relative viability (Vismodegib + Linsitinib; first compound 8 µM): 0.856
- relative viability ([1]; first compound 0.08 µM): 0.416
- relative viability ([1]; first compound 0.253 µM): 0.371
- relative viability ([1]; first compound 0.8 µM): 0.429
- relative viability ([1]; first compound 2.53 µM): 0.402
- relative viability ([1]; first compound 8 µM): 0.368
- relative viability (Ruxolitinib + Pemetrexed; first compound 0.08 µM): 1.1
- relative viability (Ruxolitinib + Pemetrexed; first compound 0.253 µM): 0.977
- relative viability (Ruxolitinib + Pemetrexed; first compound 0.8 µM): 1.09
- relative viability (Ruxolitinib + Pemetrexed; first compound 2.53 µM): 1.02
- relative viability (Ruxolitinib + Pemetrexed; first compound 8 µM): 1.01

Cell Line: NCI-H1792
- relative viability (Vismodegib + Pictilisib; first compound 0.08 µM): 0.28
- relative viability (Vismodegib + Pictilisib; first compound 0.253 µM): 0.299
- relative viability (Vismodegib + Pictilisib; first compound 0.8 µM): 0.23
- relative viability (Vismodegib + Pictilisib; first compound 2.53 µM): 0.227
- relative viability (Vismodegib + Pictilisib; first compound 8 µM): 0.28
- relative viability (Vismodegib + Linsitinib; first compound 0.08 µM): 0.532
- relative viability (Vismodegib + Linsitinib; first compound 0.253 µM): 0.558
- relative viability (Vismodegib + Linsitinib; first compound 0.8 µM): 0.409
- relative viability (Vismodegib + Linsitinib; first compound 2.53 µM): 0.572
- relative viability (Vismodegib + Linsitinib; first compound 8 µM): 0.503
- relative viability ([1]; first compound 0.08 µM): 0.595
- relative viability ([1]; first compound 0.253 µM): 0.565
- relative viability ([1]; first compound 0.8 µM): 0.631
- relative viability ([1]; first compound 2.53 µM): 0.632
- relative viability ([1]; first compound 8 µM): 0.575
- relative viability (Ruxolitinib + Pemetrexed; first compound 0.08 µM): 0.883
- relative viability (Ruxolitinib + Pemetrexed; first compound 0.253 µM): 0.608
- relative viability (Ruxolitinib + Pemetrexed; first compound 0.8 µM): 0.778
- relative viability (Ruxolitinib + Pemetrexed; first compound 2.53 µM): 0.564
- relative viability (Ruxolitinib + Pemetrexed; first compound 8 µM): 0.425

Cell Line: NCI-H838
- relative viability (Vismodegib + Pictilisib; first compound 0.08 µM): 0.389
- relative viability (Vismodegib + Pictilisib; first compound 0.253 µM): 0.408
- relative viability (Vismodegib + Pictilisib; first compound 0.8 µM): 0.415
- relative viability (Vismodegib + Pictilisib; first compound 2.53 µM): 0.489
- relative viability (Vismodegib + Pictilisib; first compound 8 µM): 0.504
- relative viability (Vismodegib + Linsitinib; first compound 0.08 µM): 0.869
- relative viability (Vismodegib + Linsitinib; first compound 0.253 µM): 0.967
- relative viability (Vismodegib + Linsitinib; first compound 0.8 µM): 0.992
- relative viability (Vismodegib + Linsitinib; first compound 2.53 µM): 0.99
- relative viability (Vismodegib + Linsitinib; first compound 8 µM): 1.02
- relative viability ([1]; first compound 0.08 µM): 0.254
- relative viability ([1]; first compound 0.253 µM): 0.223
- relative viability ([1]; first compound 0.8 µM): 0.227
- relative viability ([1]; first compound 2.53 µM): 0.164
- relative viability ([1]; first compound 8 µM): 0.159
- relative viability (Ruxolitinib + Pemetrexed; first compound 0.08 µM): 0.259
- relative viability (Ruxolitinib + Pemetrexed; first compound 0.253 µM): 0.246
- relative viability (Ruxolitinib + Pemetrexed; first compound 0.8 µM): 0.266
- relative viability (Ruxolitinib + Pemetrexed; first compound 2.53 µM): 0.227
- relative viability (Ruxolitinib + Pemetrexed; first compound 8 µM): 0.204
